Reference: patent US11844841B2, “Dosing regimens and related compositions and methods” (Apellis Pharmaceuticals, Inc., priority 2017, dated 2023)

How the values were obtained:
[1] = Inhalation study, repeated dosing; details: in vivo, inhaled or intranasal, 25 mg/kg/d; 7 day repeated dose study in the dog
Procedure: (§1) Inhalation studies of single dose or repeated dosing were conducted in dog and cynomolgus monkey. […] These doses were 25 mg/kg/d in a 7 day repeated dose study in the dog, 80 mg/kg in a single dose study in the monkey, and 30 mg/kg/day in a 14 day repeated dose in the monkey.

[2] = Inhalation studies, single dose and repeated dosing; format: in vivo, cynomolgus monkey
Procedure: as §1

[3] = Phase 1 single and multiple ascending dose trial of inhaled (nebulized) CA28 in healthy volunteers; format: in vivo, human; details: for adverse event: one subject
Procedure: In the single ascending dose part of the trial, 16 subjects were enrolled in four cohorts of four subjects each.
Four subjects were enrolled in the first cohort of the multiple ascending dose part of the trial. These subjects were to receive 14 consecutive days of treatment with a 60 mg/day dose of the drug. […] The trial was paused and subsequently resumed, with subjects receiving 30 mg/day. […] The trial was then terminated.

[4] = tested on: complement activation via the classical pathway; test: Classical complement inhibition assay (C3b deposition ELISA); format: biochemical, human
Procedure: Inhibitory activity of the synthesized compounds was assessed by measuring the effect of the compounds on complement activation via the classical pathway using a standard complement inhibition assay. The protocol measures C3b deposition in an ELISA format. C3b deposition monitored using this method is generated through complement activated by the classical pathway. Briefly, 96-well plates are coated with BSA. Human plasma, chicken ovalbumin (OVA), polyclonal anti-OVA antibodies and compound being tested (referred to as “drug”) are added and incubated, followed by addition of Anti-human C3 HRP-conjugated antibody. After an additional incubation, substrate is added and signal detected. Details of the protocol are as follows:
Protocol for Classical Complement Inhibition Assay
• Ninety-six well plate (polystyrene plate, Thermo Scientific, 9205) • Chicken OVA (Sigma A5503-5G) • Rabbit anti-chicken OVA (Abcam ab1221) • Blocking buffer (Startingblock buffer, Thermo Scientific 37538) • Veronal Buffer (5× concentration, Lonza 12-624E) • Human plasma (collected with Lepirudin at 50 ug/ml final concentration) • Goat anti-human C3 HRP-conjugated Ab (MP Biomedicals, 55237) • Tween-20 Wash Buffer (0.05% Tween 20-PBS buffer) • TMB (Peroxidase substrate, BD 555214)—1:1 mixture of BD 51-2607KC and 51-2606KC. • 1M H2SO4 Protocol: • 1. […]
Data was analyzed using GraphPad Prism5 software. […]

[5] = tested on: RBCs from a patient with PNH; test: Modified Ham's test with flow cytometry for CD59 and C3d (Example 18); format: cell-based, human
Procedure: A modified Ham's test was performed to assess the ability of compstatin analogs to protect PNH RBCs from complement-mediated lysis. […] Exposure to heat inactivated human serum was used as a control representing no significant complement-mediated lysis as complement is inactivated by heat. Exposure to acidified human serum and magnesium (Mg^2+) in the absence of complement inhibitors (pane labeled Mg^2+) was used as a control representing maximum lysis.
Following incubation, cells were stained with antibodies to CD59 and C3d. CD59 level permitted the classification of the PNH RBCs as Type I, Type II, or Type III. Staining for C3d, a product of C3 activation and cleavage was used as a marker of C3 and C3 activation product deposition (loading). Flow cytometric analysis was performed to assess CD59 and C3d on RBC surfaces and to quantify the percentages of Type I, Type II, and Type III cells present in various samples.
Type I cells (shown in orange in FIG. 12) have normal levels of CD59. Type III cells (shown in blue in FIG. 12) have essentially no detectable CD59. […] Type II cells (shown in purple in FIG. 12) have reduced levels of CD59 as compared with normal or Type I cells and have an intermediate sensitivity to complement-mediated lysis. […] Type II cells may eventually lyse in the presence of activated complement but can accumulate a considerable amount of C3 activation products such as C3d before they do so. Reduction in or absence of lysis may be evidenced by increased levels of C3 or C3 activation products on Type II cells, as is evident by comparing the level of C3d on Type II cells in the no lysis panel with the level of C3d on Type II cells in the max. lysis panel in both FIGS. 12(A) and 12(B). […] A shift in the relative percentages of Type I, II, and III cells from the percentages present in the max. lysis control panels (Mg^2+) towards the percentages present in the no lysis control panels (heat inactivated serum) is indicative of protection against complement-mediated lysis. The column labeled % C′3 in Table 11 refers to the percentage of cells deemed “positive” for presence of C3 and C3 activation products (“C3 loading”).

PNH RBCs = test: Modified Ham's assay, comparison with Soliris (Example 19); format: cell-based, human; details: CA28-2GS-BF 50 ug/ml
Procedure: Flow cytometry was performed after antibody staining using antibodies against CD59 and C3d. In this figure, quadrant 1 (Q1) and quadrant 3 (Q3) represent Type III cells. Quadrant 2 (Q2) and quadrant 4 (Q4) represent Types I and II cells. Q1 and Q2 represent cells with a significant and abnormally high amount of C3 activation product (e.g., C3d) deposition. Q3 and Q4 represent cells without significant C3d deposition or somewhat elevated level (right portion of Q4) but less so than Q2 cells.

CC[C@H](C)[C@H](NC(C)=O)C(=O)N[C@H]1CSSC[C@@H](C(=O)N[C@H](C(N)=O)[C@@H](C)O)NC(=O)[C@H](CCCNC(=N)N)NC(=O)[C@H](Cc2cnc[nH]2)NC(=O)[C@H](C)NC(=O)CNC(=O)[C@H](Cc2c[nH]c3ccccc23)NC(=O)[C@H](CC(=O)O)NC(=O)[C@H](CCC(N)=O)NC(=O)[C@H](Cc2cn(C)c3ccccc23)NC(=O)[C@H](C(C)C)NC1=O [CA28]
NOAEL at 168 h [1]: 25 mg/kg/day | highest inhaled dose tested, no drug-related findings ([2]; 14 day repeated dose in the monkey): 30 mg/kg/day | NOAEL ([2]; cynomolgus monkey, in vivo, inhaled or intranasal, 80 mg/kg, single dose study in the monkey): 80 mg/kg | adverse event ([3]; 30 mg/day inhaled, after 10 days of treatment): signs and symptoms consistent with a potential bacterial infection | adverse event ([3]; 60 mg/day inhaled, after nine days of treatment): signs and symptoms consistent with a potential bacterial infection | safety and tolerability ([3]; single inhaled doses 20, 60, 150 or 350 mg): well tolerated and no serious adverse events were reported

CA28-2GS-BF: Bifunctional linear 40 kD PEG of the GS (glutaryl NHS ester) type coupled to two CA28-AEEAc-Lys moieties
complement inhibiting activity, comparison in words [4]: virtually identical | Type I % C′3 ([5]; compound at 20 micrograms/ml): 2.18% | Type II % C′3 ([5]; compound at 20 micrograms/ml): 12.28% | Type III % C′3 ([5]; compound at 20 micrograms/ml): 0.99% | Type I % C′3 ([5]; compound at 40 micrograms/ml): 2.84% | Type III % C′3 ([5]; compound at 40 micrograms/ml): 1.21% | Type I % C′3 ([5]; compound at 50 micrograms/ml): 2.26% | Type III % C′3 ([5]; compound at 50 micrograms/ml): 1.29% | Type I % C′3 ([5]; compound at 60 micrograms/ml): 2.05% | Type II % C′3 ([5]; compound at 60 micrograms/ml): 13.04% | Type III % C′3 ([5]; compound at 60 micrograms/ml): 1.44% | Type I % C′3 ([5]; compound at 100 micrograms/ml): 0.07% | Type II % C′3 ([5]; compound at 100 micrograms/ml): 0.88% | Type III % C′3 ([5]; compound at 100 micrograms/ml): 0.11% | Type I % C′3 ([5]; compound at 200 micrograms/ml): 0.02% | Type II % C′3 ([5]; compound at 200 micrograms/ml): 0.26% | Type III % C′3 ([5]; compound at 200 micrograms/ml): 0.02% | Type I % C′3 ([5]; compound at 500 micrograms/ml): 0.04% | Type II % C′3 ([5]; compound at 500 micrograms/ml): 0.3% | Type III % C′3 ([5]; compound at 500 micrograms/ml): 0.05% | protection of PNH RBCs from complement-mediated lysis ([5]; in the presence of 100 ug/ml or more compstatin analog): complete protection from complement-mediated lysis | deposition of C3d on PNH RBCs (PNH RBCs): essentially no deposition of C3d
